From patent US20050220779A1, “Integrin linked kinase modulation of macrophage activation” (priority 2001, published 2005)

Key:
[1] = system: LPS-IFN-γ stimulated macrophages; assay: NO production of LPS-IFN-γ stimulated macrophages (cell type not specified; dose response, Table 2 and second Table 3); type: cell-based, murine; conditions: LPS-INF-γ stimulated
Experimental: (§1) Treatment of primary macrophages and RAW 264.7 cells. […] Following 3 h incubation, at 37 C, 5% CO2 (macrophages were allowed to attach) cells were stimulated with LPS (0.5 μg/ml) and IFN-γ (100 U/ml) in the absence or presence of various concentrations of ILK inhibitors (all treatments were replicated six times). Cells were incubated for an additional 24 h, and cell free culture supernatants from each well were collected for NO and cytokine determination. The remaining cells were stained with crystal violet to determine effect of the inhibitors on cell survival.
(§2) NO production. Following stimulation, the production of NO was determined by assaying culture supernatants for NO2^−, a stable reaction product of NO with molecular oxygen. Briefly, 100 μl of culture supernatant was reacted with an equal volume of Griess reagent at room temperature for 10 min. The absorbance at 550 nm was determined. All measurements were performed six times. The concentration of NO2^−was calculated by comparison with a standard curve prepared using NaNO2.

[2] = system: IL-6 release in macrophages; assay: LPS-IFN-γ-induced IL-6 release in macrophages (ELISA); type: cell-based, murine
Experimental: (§3) Treatment of primary macrophages and RAW 264.7 cells. Primary macrophages (1.5×10^5 cells/well) and RAW 264.7 (4×10^4 cells/well) cells were grown in 96-well plates (nitrite assay), or 6-well plates (2×10^6 cells/well) for measurement of iNOS and COX-2 expression. Following 3 h incubation, at 37 C, 5% CO2 (macrophages were allowed to attach) cells were stimulated with LPS (0.5 μg/ml) and IFN-γ (100 U/ml) in the absence or presence of various concentrations of ILK inhibitors (all treatments were replicated six times). Cells were incubated for an additional 24 h, and cell free culture supernatants from each well were collected for NO and cytokine determination. The remaining cells were stained with crystal violet to determine effect of the inhibitors on cell survival.
Enzyme immunoassays for mouse IL-6. IL-6 levels were determined with PharMingen's OptElA ELISA set developed using an anti-mouse IL-6 Ab pair and mouse rIL-6 standard (PharMingen). Maxisorp F16 multiwell strips (Nunc, Roskilde, Denmark) were coated with anti-mouse IL-6 capture Ab (at recommended concentration) in 0.1 M NaHCO3, pH 9.5, 100 μl/well, overnight at 4° C. Plates were washed three times with 0.05% Tween 20 in PBS (PBST) and blocked for 1 h at room temperature with 200 μl/well of 10% FCS in PBS (blocking and dilution buffer). […] Absorbance was read at 450 nm with an EL 312e microplate reader. […]

iNOS = iNOS protein expression in LPS-IFN-γ stimulated macrophages (western blot); type: cell-based, murine; conditions: Macrophages, LPS-INF-γ stimulated
Experimental: (§4) Western blot analysis. After incubation with the indicated stimuli in the presence of ILK inhibitors, cells (duplicate samples, 2×10^6cell/6-wells plate) were washed in PBS and lysed on ice in 60 μl of lysis buffer. The protein content of each sample was determined using the Bradford protein assay kit (Bio-Rad, Richmond, Calif.). Absorbance was measured at 750 nm with a Beckman DU530 spectrophotometer (Palo Alto, Calif.). Proteins were mixed with […] sample buffer. Following separation of proteins by SDS-PAGE, using 8% bis-acrylamide in the separation gel, the proteins were transferred from the gels onto PVDF membranes using a MiniProtean III Cell (Bio-Rad), at 100 V for 1.5 h. Equal amounts of protein (5 μg) were loaded onto SDS-PAGE gels and examined by Western blot analysis with anti-Actin, anti-iNOS, anti-COX-2 murine monoclonal antibodies according to the manufacturers specifications (Transduction Laboratories). Primary Abs, in 5% blocking buffer (5% NFM/TTBS), were incubated with blots 2 h or overnight at 4° C., followed by incubation with peroxidase-conjugated secondary antibody. Chemiluminescence substrates were used to reveal positive bands. The bands were exposed on x-ray films. […] The Multi-Analyst/PC system from Biorad is being used to quantitate the bands of the expressed protein on the film. […] White light is chosen as the selected light source, thus the signal strength is measured in OD (optic density) units. […]
(§5) Effects of ILK inhibitors on the LPS-IFN-γ-induced iNOS and COX-2 expression NO production requires that iNOS be enzymatically activity, therefore experiments were performed to examine whether the inhibitory effect of ILK inhibitors was mediated by […] iNOS protein synthesis or effects on the activity of existing enzyme. Stimulated cells were treated with ILK inhibitors (25 μM), and lysed 16 h later and a western blot analysis was performed to quantitate iNOS protein expression. […]

COX-2 = COX-2 protein expression in LPS-IFN-γ stimulated macrophages (western blot); type: cell-based, murine; conditions: Macrophages, LPS-INF-γ stimulated
Experimental: as §4, with “Laboratories).” for “Laboratories). Primary Abs, in 5% blocking buffer (5% NFM/TTBS), were incubated with blots 2 h or overnight at 4° C., followed by incubation with peroxidase-conjugated secondary antibody. Chemiluminescence substrates were used to reveal positive bands. The bands were exposed on x-ray films.”
as §5
Nitric oxide and Prostaglandin E2 are two pleiotropic mediators produced at inflammatory sites by the inducible enzymes iNOS and cyclooxygenase-2 (COX-2), respectively. […] Finally, we evaluated the in-vitro effects of compounds on production of MCP-1 chemokine by TNF-α stimulated HUVEC cells. […]

[3] = system: BALB/c cells (primary peritoneal macrophages); assay: LPS-IFN-γ-induced macrophage NO production (Griess nitrite assay), BALB/c cells; type: cell-based, mouse
Experimental: (§6) Isolation of primary mouse macrophages. Peritoneal exudate macrophages were isolated by peritoneal lavage with ice-cold sterile physiological saline 24 h after intraperitoneal injection of BALB/c and CB57BL/6 mice with 0.3 ml of sterile Zymosan A (1 mg/0.5 ml 0.9% saline). Cells were washed, resuspended in RPMI 1640 supplemented with 2 mM L-glutamine, 100 units/ml penicillin, 100 μg/ml streptomycin, and 5% FBS.
as §3, §2
(§7) Effects of ILK inhibitors on LPS-IFN-γ-induced NO release. […] […] To compare the effect of the compounds across three different cell types, the NO release for each cell type was expressed relative to DMSO treated cells. […] For example, macrophages from Balb/c and C57BL/6 mice responded similarly to the treatment with the compounds.

[4] = system: C57BL/6 cells (primary peritoneal macrophages); assay: LPS-IFN-γ-induced macrophage NO production (Griess nitrite assay), C57BL/6 cells; type: cell-based, mouse
Experimental: as §6, §3, §2, §7

RAW 264.7 cells [5] = assay: LPS-IFN-γ-induced macrophage NO production (Griess nitrite assay), RAW 264.7 cells; type: cell-based, murine
Experimental: RAW 264.7 cells. RAW 264.7 cells, a murine macrophage cell line, were obtained from American Type Culture Collection (ATCC, Manassas, Va.) and cultured in DMEM supplemented with 10% FCS. Each treatment was performed in triplicate wells. RAW 264.7 cells (Balb/c background) produce a significant amount of nitric oxide upon treatment with IFN-γ alone, but require LPS for full activation. This property makes their behavior more like that of normal macrophages obtained from commonly used strains of mice.
as §1, §2
Effects of ILK inhibitors on LPS-IFN-γ-induced NO release. […] […] To compare the effect of the compounds across three different cell types, the NO release for each cell type was expressed relative to DMSO treated cells.

[6] = system: BALB/c cells (primary peritoneal macrophages); assay: Cell survival by crystal violet staining, BALB/c cells; type: cell-based; conditions: BALB/c cells
Experimental: as §1
(§8) Effect of ILK Inhibitors on suppression of NO production and cell survival. Twenty-four hours following treatment with the ILK inhibitors, aliquots from the cell-free supernatants were assayed for NO and IL-6 release. Surviving cells were stained and fixed (crystal violet 0.05% in 20% ethanol), to determine if the decrease in NO production was related to a decrease in cell number due to toxicity of the compounds.

[7] = system: C57BL/6 cells (primary peritoneal macrophages); assay: Cell survival by crystal violet staining, C57BL/6 cells; type: cell-based
Experimental: as §1, §8

RAW 264.7 cells [8] = assay: Cell survival by crystal violet staining, RAW 264.7 cells; type: cell-based
Experimental: as §3
as §8, with “compounds. […] Only those compounds that induced strong inhibition of NO release, and caused no significant cell death were selected for further evaluation.” for “compounds.”

HUVEC cells = assay: In vitro Matrigel morphogenesis (tube formation) assay of VEGF stimulated HUVEC cells; type: cell-based, human; conditions: 100 mM (so in the source)
Experimental: In Vitro Angiogenesis. […] After 5 hours of incubation in a 5% CO2-humidified atmosphere at 37 °C, the three-dimensional organization of the cells was examined using an inverted photomicroscope. The cells were fixed with Crystal Violet (0.05% in 20% ethanol) and digitally photographed.
To determine the anti-angiogenic properties of ILK inhibitors, an in vitro Matrigel morphogenesis assay was established. This assay evaluates the ability of endothelial cells to differentiate into capillary-like structures, a crucial step during neovascularization. HUVEC cells when stimulated with VEGF and seeded onto Matrigel rapidly attach to the matrix and begin to migrate and interact with the extracellular matrix proteins present in the Matrigel. […] These capillary-like structures can be assessed by histology (FIG. 2). Samples are cut on a cross section and subsequent viewed using an electron microscope. Typically, cylindrical formations with a lumen are observed. A distinct difference in the morphology of tube formation on Matrigel, compared to other in vitro angiogenesis assays is a reduction in the proliferation of endothelial cells. […] Using this model system, both inhibitors and stimulators of angiogenesis can be assessed prior to in vivo testing.
The assay was established and reproducibility confirmed. SU5416, shown to inhibit angiogenesis in other assays, was also evaluated. […]

Row | Structure (SMILES) | NO inhibition (%) ([3]; 0.5 mM) | NO release (%) ([3]; 0.5 mM) | NO inhibition (%) ([3]; 1 mM) | NO release (%) ([3]; 1 mM) | NO inhibition (%) ([4]; 0.5 mM) | NO release (%) ([4]; 0.5 mM) | NO inhibition (%) ([4]; 1 mM) | NO release (%) ([4]; 1 mM) | NO inhibition (%) (RAW 264.7 cells [5]; 0.5 mM) | NO release (%) (RAW 264.7 cells [5]; 0.5 mM) | NO inhibition (%) (RAW 264.7 cells [5]; 1 mM) | NO release (%) (RAW 264.7 cells [5]; 1 mM) | Survival (%) ([6]; 0.5 mM) | Survival (%) ([6]; 1 mM) | Survival (%) ([7]; 0.5 mM) | Survival (%) ([7]; 1 mM) | Survival (%) (RAW 264.7 cells [8]; 0.5 mM) | Survival (%) (RAW 264.7 cells [8]; 1 mM) | further results
1 | NC1=NN=C(N)C1/N=N/c1ccc(F)c(C(F)(F)F)c1 [4-[(4-fluoro-3-trifluoromethylphenyl)hydrazono]-4H-pyrazole-3,5-diamine] |  |  |  |  |  |  |  |  |  |  |  |  |  |  |  |  |  |  | NO (%) [1]: 74%; inhibition at 25 µM ([2]; Mus musculus, Macrophage, 25 μM, 24 h, LPS (0.5 μg) IFN-γ (100 U)): 63%; INOS (%) (iNOS): 88%; COX-2 (%) (COX-2): 67%
2 | C[C@@H]1C[C@H]2[C@@H]3CCC4=CC(=O)C=C[C@]4(C)[C@@]3(F)[C@@H](O)C[C@]2(C)[C@@]1(O)C(=O)CO [Dex, Dexamethasone] | 28 | 60.6 | 36 | 46.7 | 32 | 67.9 | 53 | 46.6 | −6 | 103.6 | −9 | 87.1 | 84 | 73 | 87 | 68 | 98 | 80 | 
3 | CNC(=N)NCCC[C@H](N)C(=O)O [L-NMMA, N^G-Monomethyl-L-arginine] | 92 | 7.9 | 97 | 3.1 | 92 | 8.3 | 99 | 1.1 | 52 | 44.2 | 63 | 31.7 | 97 | 94 | 97 | 99 | 92 | 86 | 
4 | Cc1cc(C)c(/C=C2\C(=O)Nc3ccccc32)[nH]1 [SU5146, reference compound] |  |  |  |  |  |  |  |  |  |  |  |  |  |  |  |  |  |  | Effect on endothelial cell morphogenesis (in words) (HUVEC cells): did not affect endothelial cell morphogenesis
5 | C[C@]12CCC(=O)C=C1CC[C@@H]1[C@@H]2[C@@H](O)C[C@@]2(C)[C@H]1CC[C@]2(O)C(=O)CO [hydrocortisone, Hydrocortisone, reference compound] |  |  |  |  |  |  |  |  |  |  |  |  |  |  |  |  |  |  | Effect on IL-6 release (in words) ([2]; 50 μM, added at the onset of the culture): moderately suppressed IL-6 release
